US10561704B2, “Compositions and methods for treating neuropsychiatric disorders using an endothelin-B receptor agonist” (MIDWESTERN UNIVERSITY, priority 2013, dated 2020)
Marks after values point to notes of the source that are not given here. *1 amine or outer side, *2 acyl side, *3 side chain or, on linkers, in order; H or OH if unused. Where no end group is shown, it is not given here. Suc = O=C(CCC(=O)[*:2])[*:1]

How the values were obtained:
[1] = system: middle cerebral artery occluded rats; test: 7 day survival following focal cerebral ischemia (MCAO); format: in vivo
Experimental: FIG. 13: Effect of ETB receptor agonist, IRL-1620, in presence and absence of BQ788 on 7 day survival of rats undergoing either sham surgery or middle cerebral artery occlusion.
Effect of IRL-1620 on 7 day survival of rats following focal cerebral ischemia: Studies were also conducted to determine the effect of stimulating ETB receptors using a selective agonist, IRL-1620, in rats with middle cerebral artery occlusion (MCAO). […] However, MCAO rats in the vehicle treated group presented with 38% mortality by 7th day. […] Preliminary results and supporting literature have prompted the investigation of the mechanism involved in neuroprotective and neurorestorative effects of stimulating ETB receptors in rats with cerebral ischemia.

[2] = system: middle cerebral artery occluded rats; test: Neurological deficit and motor function post middle cerebral artery occlusion; format: in vivo; settings: for Distance Traveled (cm) / Foot Fault Error (%) / Grip Test (6 point scale) / Neurological Evaluation (6 point scale) / Rota Rod Duration / Vertical Breaks: MCAO rats
Experimental: Effect of IRL-1620 on neurological deficit following focal cerebral ischemia: In a preliminary study, the effect of selectively activating ETB receptors by IRL-1620 following permanent middle cerebral artery occlusion in rats was determined.

[3] = system: Aβ treated non-diabetic and diabetic rats; test: Morris water maze test for cognitive impairment in Aβ treated rats; format: in vivo, Sprague-Dawley rats
Experimental: Amyloid-β (1-40) (Tocris Bioscience, Ellisville, Mo., USA), IRL-1620 [N-Succinyl-[Glu9, Ala11,15] endothelin 1] (American Peptide Co, Inc., Sunnyvale, Calif., USA) and BQ788 (American Peptide Co, Inc., Sunnyvale, Calif., USA) were dissolved in sterile saline and all the solutions were freshly prepared before injections. Ketamine (Butler Animal Health Supply, Dublin, Ohio, USA) was administered at a dose of 100 mg/kg, intraperitoneally (i.p.), and xylazine (Lloyd Laboratories, Shenandoah, Iowa, USA) was administered at a dose of 10 mg/kg, i.p. Rats were anesthetized with ketamine (100 mg/kg) and xylazine (10 mg/kg) and a lateral cerebral ventricle was cannulated by placing the rat in a stereotaxic (David Kopf Instruments, Tujunga, Calif., USA) instrument and fixing the cannula (coordinates: 1.0 mm lateral, 1.5 mm caudal to bregma and 4.0 mm deep from the bone). Cannula (Plastics One, Roanoke, Va., USA) was anchored with dental acrylic to three screws placed in the skull. The animals were allowed to recover from surgery for at least seven days. After 7 days, rats were treated with vehicle, Aβ (1-40), ETB receptor agonist and/or antagonist in the lateral cerebral ventricles using the implanted cannula. Vehicle, Aβ or ETB receptor agonist and antagonist were injected in a volume of 5 μl over a period of 5 minutes. Aβ (1-40) was used because it is highly soluble compared to Aβ (1-42) and induces endothelial dysfunction of both cerebral and systemic blood vessels in addition to memory deficit (Nitta et al., 1994; Niwa et al., 2000; Smith et al., 2004; Weller et al., 1998). Agents were delivered using 10 μl Hamilton syringe and agent treatments were carried out individually using separate 10 μl syringe. IRL-1620 was administered 1 hour after Aβ injection whereas BQ788 was administered 15 minutes prior to IRL-1620 injection. At the end of the experiment, placement of cannula was confirmed by injecting methylene blue dye (5 μl) and observing the site and extent of staining. All experiments were performed on day 15 (Briyal et al., 2011). Water maze testing was performed from day 15 to day 19 after which animals were euthanized. Animals used for oxidative stress measurements were euthanized on day 15 without being subjected to any behavioral testing. Diabetes mellitus type 2 was induced in rats belonging to the diabetic group by administering freshly prepared streptozotocin at the dose of 45 mg/kg, i.p. Streptozotocin was dissolved in 0.01 M sodium citrate buffer of pH 4.3. On day 3, blood glucose was obtained from the rat-tail and tested for hyperglycemia using the SureStep Complete Blood Glucose monitor kit. Rats with blood glucose levels above 11.1 mM were considered diabetic. Diabetic and non-diabetic animals were randomly divided into five groups (6 rats per group) (i) Sham, (ii) Aβ+Vehicle, (iii) Aβ+IRL-1620, (iv) Aβ+BQ788 (v) Aβ+BQ788+IRL-1620. Aβ (1-40) was administered intracerebroventricularly (i.c.v.) (20 μg in 3 equally divided doses i.e. 6.67 μg were injected 3 times for a total of 20 μg dose) on day 1, 7, and 14. Specific ETB receptor agonist, IRL-1620 (3 μg) and specific ETB receptor antagonist, BQ788 (10 μg) were administered i.c.v. daily for 14 days starting from day 1 of Aβ injection. The doses of IRL-1620 and BQ788 were selected on the basis of previous studies conducted in our laboratory (Leonard et al., 2011).
Spatial learning and memory of animals were tested in a MWM (Morris, 1984). […]

Row | Compound | Mortality during 7 day observation [1] | Distance Traveled (cm) ([2]; Baseline) | Foot Fault Error (%) ([2]; Baseline) | Grip Test (6 point scale) ([2]; Baseline) | Neurological Evaluation (6 point scale) ([2]; Baseline) | Rota Rod Duration ([2]; Baseline) | Vertical Breaks ([2]; Baseline) | Distance Traveled (cm) ([2]; Day 1) | Foot Fault Error (%) ([2]; Day 1) | Grip Test (6 point scale) ([2]; Day 1) | Neurological Evaluation (6 point scale) ([2]; Day 1) | Rota Rod Duration ([2]; Day 1) | Vertical Breaks ([2]; Day 1) | Distance Traveled (cm) ([2]; Day 4) | Foot Fault Error (%) ([2]; Day 4) | Grip Test (6 point scale) ([2]; Day 4) | Neurological Evaluation (6 point scale) ([2]; Day 4) | Rota Rod Duration ([2]; Day 4) | Vertical Breaks ([2]; Day 4) | Distance Traveled (cm) ([2]; Day 7) | other results
1 | Suc-Asp-Glu-Glu-Ala-Val-Tyr-Phe-Ala-His-Leu-Asp-Ile-Ile-Trp (Suc-DEEAVYFAHLDIIW) [IRL-1620] | no mortality | 5073 ± 334 cm | 4.05 ± 1.31% | 3.86 ± 0.46 | 0 ± 0 | 113.29 ± 8.34 s | 61.50 ± 4.94 | 1611 ± 325 cm | 18.85 ± 6.48 % | 2.71 ± 0.52 | 1.29 ± 0.36 | 78.71 ± 22.59 s | 12.75 ± 4.76 | 2898 ± 451 cm | 14.00 ± 3.66 % | 2.33 ± 0.58 | 0.67 ± 0.22 | 97.33 ± 2.08 s | 26.33 ± 2.08 | 3472 ± 732 cm | Foot Fault Error (%) ([2]; Day 7): 8.28 ± 1.09 %; Grip Test (6 point scale) ([2]; Day 7): 3.33 ± 0.22; Neurological Evaluation (6 point scale) ([2]; Day 7): 0.67 ± 0.22; Rota Rod Duration ([2]; Day 7): 123.67 ± 7.28 s; Vertical Breaks ([2]; Day 7): 34.33 ± 3.78; Neurological and motor function tests ([2]; preliminary study, 24 hours after permanent MCAO, vs vehicle-treated): significant improvement; Escape latency, water maze acquisition ([3]; Aβ treated rats, day 3 and 4 of training, vs Aβ + vehicle): decreased significantly; Path length, water maze acquisition ([3]; Aβ treated rats, vs vehicle group): shorter path lengths; Time spent in the target quadrant, probe trial ([3]; Aβ treated rats, vs vehicle treated Aβ rats): increased
2 | CCCC[C@@H](NC(=O)[C@@H](Cc1cn(C(=O)OC)c2ccccc12)NC(=O)[C@H](CC(C)(C)C)NC(=O)N1[C@H](C)CCC[C@@H]1C)C(=O)O [BQ788, reference compound] | 25% | 5141 ± 285 cm | 5.96 ± 1.75% | 3.33 ± 0.33 | 0 ± 0 | 102.00 ± 5.14 s | 55.17 ± 3.74 | 1168 ± 417 cm | 52.12 ± 11.93*^@ % | 0.67 ± 0.33*^@ | 3.00 ± 0.58*^@ | 37.83 ± 20.87 s | 5.33 ± 2.47 | 1246 ± 410 cm | 68.89 ± 12.27*^@ % | 0.33 ± 0.24 | 3.33 ± 0.62*^@ | 37.67 ± 14.92 s | 4.33 ± 1.52 | 2280 ± 836 cm | Foot Fault Error (%) ([2]; Day 7): 75.00 ± 17.67*^@ %; Grip Test (6 point scale) ([2]; Day 7): 1.67 ± 0.62; Neurological Evaluation (6 point scale) ([2]; Day 7): 3.00 ± 0.82*^@; Rota Rod Duration ([2]; Day 7): 49.67 ± 17.56 s; Vertical Breaks ([2]; Day 7): 11.00 ± 3.97; Improvement in escape latency produced by IRL-1620 ([3]; Aβ rats, BQ788 given with IRL-1620): blocked; Time spent in the target quadrant, probe trial ([3]; Aβ treated rats given BQ788): did not produce any improvement
